According to patent US9809542B2, “Spiroheterocyclically substituted tetramic acid derivatives” (BAYER INTELLECTUAL PROPERTY GMBH, priority 2010, dated 2017):

Experiments:
Format in all cases: in vivo
[1] = tested on: caterpillars of the armyworm (Spodoptera frugiperda); test: Spodoptera frugiperda test (SPODFR spray treatment); conditions: application rate 500 g/ha, maize leaf discs, after 7 days
Procedure: Spodoptera frugiperda Test (SPODFR Spray Treatment)
(§1) Solvents: 78.0 parts by weight of acetone
(§2) • 1.5 parts by weight of dimethylformamide Emulsifier: 0.5 part by weight of alkylaryl polyglycol ether
To produce a suitable preparation of active compound, 1 part by weight of active compound is mixed with the stated amounts of solvents and emulsifier, and the concentrate is diluted with emulsifier-containing water to the desired concentration. Discs of maize leaves (Zea mays) are sprayed with an active compound preparation of the desired concentration and, after drying, populated with caterpillars of the armyworm (Spodoptera frugiperda).
After 7 days, the effect in % is determined. 100% means that all caterpillars have been killed; 0% means that none of the caterpillars have been killed.

[2] = tested on: green peach aphid (Myzus persicae); test: Myzus test (MYZUPE spray treatment); conditions: application rate 500 g/ha, Chinese cabbage leaf discs, after 6 days
Procedure: Myzus Test (MYZUPE Spray Treatment)
Solvents: 78 parts by weight of acetone
as §2
To produce a suitable preparation of active compound, 1 part by weight of active compound is mixed with the stated amounts of solvents and emulsifier, and the concentrate is diluted with emulsifier-containing water to the desired concentration. Discs of Chinese cabbage (Brassica pekinensis) which are infested by all stages of the green peach aphid (Myzus persicae) are sprayed with an active compound preparation of the desired concentration. After 6 days, the effect in % is determined. 100% means that all aphids have been killed; 0% means that none of the aphids have been killed.

[3] = tested on: greenhouse red spidermite (Tetranychus urticae); test: Tetranychus test OP-resistant (TETRUR spray treatment); conditions: application rate 100 g/ha, bean leaf discs, after 6 days
Procedure: Tetranychus Test OP-Resistant (TETRUR Spray Treatment)
as §1, §2
To produce a suitable preparation of active compound, 1 part by weight of active compound is mixed with the stated amounts of solvents and emulsifier, and the concentrate is diluted with emulsifier-containing water to the desired concentration. Discs of bean leaves (Phaseolus vulgaris) which are infested by all stages of the greenhouse red spidermite (Tetranychus urticae) are sprayed with an active compound preparation of the desired concentration.
After 6 days, the effect in % is determined. 100% means that all spidermites have been killed; 0% means that none of the spidermites have been killed.

[4] = tested on: larva of the mustard beetle (Phaedon cochleariae); test: Phaedon test (PHAECO spray treatment); conditions: Chinese cabbage leaf discs, after 7 days
Procedure: Phaedon Test ([…] Spray Treatment) Solvents: 78.0 parts by weight of acetone • • 1.5 parts by weight of dimethylformamide Emulsifier: 0.5 part by weight of alkylaryl polyglycol ether To produce a suitable preparation of active compound, one part by weight of active compound is mixed with the stated amounts of solvents and emulsifier, and the concentrate is diluted with emulsifier-containing water to the desired concentration. Discs of Chinese cabbage (Brassica pekinensis) are sprayed with an active compound preparation of the desired concentration and, after drying, populated with larva of the mustard beetle (Phaedon cochleariae).

[5] = tested on: Echinocloa crus-galli; test: Herbicidal pre-emergence action; conditions: pre-emergence method, 320 g of a.i./ha; about 3 weeks
Excerpt: 1. Herbicidal Pre-Emergence Action
(§3) • Seeds of monocotyledonous and dicotyledonous weed and crop plants are placed in sandy loam in wood fibre pots and covered with soil. The test compounds, formulated in the form of wettable powders (WP), are then, as aqueous suspension with a water application rate of 600 l/ha (converted), with 0.2% of wetting agent added, applied to the surface of the covering soil in various dosages. • After the treatment, the pots are placed in a greenhouse and kept under good growth conditions for the test plants. The visual assessment of the emergence damage on the test plants is carried out after a trial period of about 3 weeks by comparison with untreated controls (herbicidal effect in %: 100% effect=the plants have died, 0% effect=like control plants). • In addition to the compounds mentioned above, the following compounds, applied by the pre-emergence method at 320 g of a.i./ha, show an efficacy of 90% against Lolium multiflorum and Setaria viridis: I-1-a-1 • In addition to the compounds mentioned above, the following compounds, applied by the pre-emergence method at 320 g of a.i./ha, show an efficacy of 100% against Echinocloa crus-galli: I-a-2, I-b-1, I-b-2, I-c-2 2. Herbicidal Post-Emergence Action • Seeds of monocotyledonous and dicotyledonous weed and crop plants are placed in sandy loam in wood fibre pots, covered with soil and cultivated in a greenhouse under good growth conditions. 2-3 weeks after sowing, the test plants are treated at the one-leaf stage. The test compounds, formulated as wettable powders (WP), are, in various dosages at a water application rate of 600 l/ha (converted), with 0.2% of wetting agent added, sprayed onto the green parts of the plants. After the test plants have been kept in the greenhouse under optimum growth conditions for about 3 weeks, the effect of the preparations is rated visually in comparison to untreated controls (herbicidal effect in %: 100% effect=the plants have died, 0% effect=like control plants). • In addition to the compounds mentioned above, the following compounds, applied by the post-emergence method at 80 g/ha, show an efficacy of 90% against Echinocloa crus-galli and Lolium multiflorum: I-a-3, I-a-4, I-a-5.

[6] = tested on: Echinocloa crus-galli; test: Herbicidal post-emergence action; conditions: post-emergence method, 80 g/ha; about 3 weeks
Excerpt: as §3

[7] = tested on: Lolium multiflorum; test: Herbicidal post-emergence action; conditions: post-emergence method, 80 g/ha; about 3 weeks
Excerpt: as §3

[8] = tested on: Lucilia cuprina larva; test: Lucilia cuprina test (LUCICU); conditions: application rate 100 ppm; treated horse meat; after 2 days
Procedure: Lucilia cuprina Test (LUCICU)
Solvent: Dimethyl sulphoxide
To produce a suitable preparation of active compound, 10 mg of active compound are mixed with 0.5 ml of dimethyl sulphoxide and the concentrate is diluted with water to the desired concentration. Containers containing horse meat treated with the active compound preparation of the desired concentration are populated with about 20 Lucilia cuprina larva.
After 2 days, the kill in % is determined. 100% means that all larva have been killed; 0% means that none of the larva have been killed.

SMILES | efficacy (effect in %, caterpillars killed) [1] [%] | efficacy (effect in %, aphids killed) [2] [%] | efficacy (effect in %, spidermites killed) [3] [%] | further results
CCOC(=O)OC1=C(c2c(C)ccc(-c3ccc(F)cc3)c2C)C(=O)NC12CCN(OC)CC2 [I-c-1] | 100 | 100 | – | –
CCON1CCC2(CC1)NC(=O)C(c1c(C)ccc(-c3ccc(Cl)c(F)c3)c1C)=C2O [I-a-14] | 100 | 100 | 90 | –
CCON1CCC2(CC1)NC(=O)C(c1c(CC)ccc(-c3ccc(F)cc3)c1C)=C2O [I-a-9] | – | 90 | 90 | efficacy (effect in %, beetle larva killed) ([4]; application rate 500 g/ha): 100%
CCON1CCC2(CC1)NC(=O)C(c1c(C)ccc(-c3ccc(F)cc3)c1C)=C2OC(=O)C(C)C [I-b-2] | 100 | 100 | – | efficacy (herbicidal effect in %) [5]: 100%
CCON1CCC2(CC1)NC(=O)C(c1cc(-c3ccc(F)cc3)ccc1Cl)=C2O [I-a-3] | 83 | 100 | 90 | efficacy (effect in %, beetle larva killed) ([4]; application rate 500 g/ha): 100%; efficacy (herbicidal effect in %) [6]: 90%; efficacy (herbicidal effect in %) [7]: 90%
CCON1CCC2(CC1)NC(=O)C(c1c(OC)ccc(-c3ccc(F)cc3)c1Cl)=C2O [I-a-7] | – | 100 | 90 | –
CCOC(=O)OC1=C(c2c(OC)ccc(-c3ccc(F)cc3)c2Cl)C(=O)NC12CCN(OC)CC2 [I-c-3] | – | – | 90 | –
CON1CCC2(CC1)NC(=O)C(c1c(C)ccc(-c3ccc(F)c(F)c3)c1C)=C2O [I-a-13] | – | 100 | 100 | –
CON1CCC2(CC1)NC(=O)C(c1c(C)ccc(-c3ccc(F)cc3)c1C)=C2OC(=O)C(C)C [I-b-1] | 100 | 100 | – | efficacy (herbicidal effect in %) [5]: 100%
CON1CCC2(CC1)NC(=O)C(c1cc(-c3ccc(F)cc3)ccc1Cl)=C2O [I-a-4] | 83 | 100 | 100 | efficacy (herbicidal effect in %) [6]: 90%; efficacy (herbicidal effect in %) [7]: 90%
COc1ccc(-c2ccc(F)cc2)c(Cl)c1C1=C(O)C2(CCN(OC)CC2)NC1=O [I-a-10] | – | 100 | 90 | –
CCON1CCC2(CC1)NC(=O)C(c1cc(-c3ccc(F)cc3)ccc1C)=C2O [I-a-6] | 100 | 100 | 90 | efficacy (effect in %, beetle larva killed) ([4]; application rate 100 g/ha): 100%
CON1CCC2(CC1)NC(=O)C(c1c(C)ccc(-c3ccc(Cl)c(F)c3)c1C)=C2O [I-a-15] | 100 | 100 | 100 | –
CCOC(=O)OC1=C(c2c(C)ccc(-c3ccc(F)cc3)c2C)C(=O)NC12CCN(OCC)CC2 [I-c-2] | 100 | 100 | – | efficacy (kill in %) [8]: 80%; efficacy (herbicidal effect in %) [5]: 100%
CCc1ccc(-c2ccc(F)cc2)c(C)c1C1=C(O)C2(CCN(OC)CC2)NC1=O [I-a-8] | – | 90 | 90 | efficacy (effect in %, beetle larva killed) ([4]; application rate 500 g/ha): 100%
CCON1CCC2(CC1)NC(=O)C(c1c(C)ccc(-c3ccc(F)c(Cl)c3)c1C)=C2O [I-a-12] | 83 | 100 | 100 | –
CON1CCC2(CC1)NC(=O)C(c1cc(-c3ccc(F)cc3)ccc1C)=C2O [I-a-5] | 100 | 100 | 90 | efficacy (herbicidal effect in %) [6]: 90%; efficacy (herbicidal effect in %) [7]: 90%
CCON1CCC2(CC1)NC(=O)C(c1c(C)ccc(-c3ccc(F)c(F)c3)c1C)=C2O [I-a-11] | – | 100 | 100 | –
